According to US20230101743A1, “SUBSTITUTED TRIAZINE COMPOUNDS AND USES THEREOF” (MUSC FOUNDATION FOR RESEARCH DEVELOPMENT, priority 2020, published 2023):

Assays:
[1] = test system: APOB mRNA; assay: APOB mRNA level by real-time qPCR; assay type: cell-based, human; conditions: 2 μg/mL, 24 hours
Protocol: G. Human iPSC-derived hepatocytes were treated with 2 μg/mL of DL-1 or equivalent concentration of DMSO for 24 hours. […] (A) APOB mRNA level was determined using real-time qPCR. (B) Intracellular APOB, LDLR, and HSP90 protein levels were determined via immunoblot. (C) Quantification of biological replicates of immunoblots on samples treated as in (B). Data are shown as mean±SEM of four replicates (n=4).
C. Human iPSC-derived hepatocytes (iPSC-Heps) were treated with 2 μg/mL of DL-1 or equivalent concentration of DMSO for 24 hours. In FIG. 7A, APOB mRNA level was determined using real-time qPCR. In FIG. 7B Intracellular APOB, LDLR, and HSP90 protein levels were determined via immunoblot; Quantification of biological replicates of immunoblots. Data are shown as mean±SD of four replicates (n=4). In FIG. 12A LDL uptake assay was performed by pre-treating cells with 2 μg/mL of DL-1, 20 μM of Atorvastatin, and equivalent concentration of DMSO for 24 hours followed by 4 hours of pHrodo-LDL exposure; LDL endocytosis was determined and quantified by fluorescence image; data are shown as mean±SD of triplicates (n=3). […]
Human iPSC-derived hepatocytes (Day 20) were treated with 2 μg/mL of DL-1 for 24 hours. […] Quantitative real-time PCR was performed on a BioRad CFX384 real-time PCR machine.

[2] = test system: Albumin; assay: Secreted albumin ELISA in iPSC-derived hepatocytes; assay type: cell-based, human
Protocol: (§1) D. Human iPSC-derived hepatocytes were treated with DL-1 with concentrations ranging from 0.0325 to 12 or 48 μg/mL for 24 hours. Pre-drug and Post-drug medium were collected for analysis. Albumin and APOB levels were determined via ELISA assay. All secreted proteins were compared to non-treated cells. […] Data are shown as mean±SEM of four replicates (n=4); * p<0.01.
(§2) E. Human iPSC-derived hepatocytes were treated with 2 μg/mL of DL-1 from 8 to 48 hours. Albumin, APOPA, and APOB level in the culture medium were determined via ELISA. All secreted proteins were compared to non-treated cells. In FIG. 5, accumulated APOB in the medium from different time-point was measured and normalized to albumin level. In FIG. 6, APOA, APOB, and albumin in the medium at the indicated times were compared to control. […] Data are shown as mean±SEM of four replicates (n=4); *p<0.05, **p<0.01.
(§3) Human APOB level was determined via a commercial sandwich ELISA (3715-1H-6; Mabtech), and the signal was detected using the HRP-TMB system. The concentration of APOB was determined using a standard curve with four parameters logistic regression model. Human APOA level was determined via a commercial sandwich ELISA (3710-1H-6; Mabtech) following manufacture instruction. Human albumin levels in cell culture supernatants were measured by commercial ELISA (E88-129; Bethyl Laboratories) following manufactural instructions.

[3] = test system: apolipoprotein B (APOB-100); assay: Secreted APOB ELISA in human iPSC-derived hepatocyte-like cells; assay type: cell-based
Protocol: as §1
E. Human iPSC-derived hepatocytes were treated with 2 μg/mL of DL-1 from 8 to 48 hours. Albumin, APOPA, and APOB level in the culture medium were determined via ELISA. All secreted proteins were compared to non-treated cells. In FIG. 5, accumulated APOB in the medium from different time-point was measured and normalized to albumin level. […]
F. Twenty-one compounds that are structurally similar to DL-1 were tested with the concentration of 2 μg/mL in human iPSC-derived hepatocytes for 24 hours. Secreted APOB levels were determined and compared to the DMSO-treated group. […] Data is shown as mean±SEM of replicates (n=8) and as quantification value of each derivative. […]
Differentiated human hepatocyte-like cells were treated with representative compounds of the invention (2 μg/mL) or equivalent amount of DMSO (0.5%) as the placebo group for 24 hours. […] The secreted level of apolipoprotein B (APOB-100), the core protein of LDL-C, were determined via enzyme-linked immunosorbent assay (ELISA). […]

[4] = test system: APOA; assay: Secreted APOA ELISA in iPSC-derived hepatocytes; assay type: cell-based, human; conditions: 2 μg/mL, 8 to 48 hours
Protocol: as §2, §3

[5] = 0.0325 to 12 or 48 μg/mL, 24 hours

For `Sc1nc(S)nc(Nc2ccc(Nc3ccccc3)cc2)n1` (racemic) [DL-1, 6-{[4-(phenylamino)phenyl]amino}-1,3,5-triazine-2,4-dithiol], the “APOB mRNA level” value [1] was “no impact on APOB mRNA and intracellular protein levels”, the “albumin level in culture medium, time course” value ([2]; 2 μg/mL, 8 to 48 hours) was “without affecting albumin and APOA level” and the “albumin level, dose-response” value [2, 5] was “without affecting albumin”. The “APOB level in culture medium, time course” value ([3]; 2 μg/mL, 8 to 48 hours) was “reduces APOB level in a time-dependent manner”, the “APOB secretion level, dose-response” value [3, 5] was “reduces APOB secretion level in a dose-response manner” and the “APOA level in culture medium, time course” value [4] was “without affecting albumin and APOA level”.
